Experimental data taken from patent publication US20260294864A1, “PHARMACEUTICAL COMPOSITION FOR THE TREATMENT AND PREVENTION OF HPV” (NP1 SRL, priority 2022, published 2026).

How the values were obtained:
HPV transformed cells = test: Anti-clonal effect on HPV transformed cells (cell line not stated); type: cell-based, human; conditions: for clonal inhibition in combination / anticlonogenic / anti-clonal effect: summary statement; for IC50: Homo sapiens, minimal concentration reducing 50% of CFU of treated versus control, read-out: CID50 (50% clonal inhibitory dose), isolated polyphenols
Description: The inhibitory relative rate (IRR) (fourth column) provides an efficacy ranking of molecules.
The anti-clonogenic activity was evaluated both by the current standard qualitative plating efficiency assay and by quantitative live cell imaging analysis (INCUCYTE S3 Live Cell Analysis Imaging System—Sartorius Welwyn Garden City, Hertfordshire, UK). For qualitative plating efficiency assay cells were seeded at ‘clonal’ density (i.e., 0.5 cell/mm^2) either in medium containing the testing molecules or with plain medium and incubated without any further manipulation. After 9-14 days, according to the cell line specific proliferative index, the cultures were decanted and stained with 0.2% CV/methanol for 5 min at room temperature. All conditions were tested in triplicates in a 6-well culture plate. The anti-clonogenic activity of the treatments was evaluated using the colony forming units (CFU) of treated versus control cultures. The minimal concentration which could reduce 50% of the CFU of treated versus control culture was defined as colony-forming Inhibitory concentration (CID50). For quantitative evaluation cells were seeded in 96-well microplates at the above density and condition and allowed to grow the subsequent 8-day incubation in the INCUCYTE S3 Imaging System. Images were acquired at 12-hours intervals and colony formation and percentage of growth area covered (confluency) were then monitored through automated image analysis. The analysis parameters were as follows: segmentation adjustment=0.4; hole fill <5,000 μm^2; adjusted pixel=−2.

HeLa cells = test: Anti-clonogenic activity on HeLa cells (plating efficiency assay / live cell imaging); type: cell-based, human; conditions: HeLa; for clonal inhibition in combination with Apigenin: 50 μM combined with Apigenin 25 μM; for clonal inhibition in combination with Apigenin / end point clonal assay, clonal inhibition alone: FIG. 9-11; for clonal inhibition in combination with Chrysin: 50 μM combined with Chrysin 25 μM; for clonal inhibition in combination with Chrysin / synergy with Galangine, Apigenin and Chrysin: FIG. 10-11; for end point clonal assay, clonal inhibition alone / Anti-clonal effect: 50 μM; for end point clonal assay, clonal inhibition alone: administered alone; for Anti-clonal effect: isolated, FIG. 1
Description: Panel C and D: diagrammatic topographical maps of treatments and growth conditions on plates A and B respectively.
Panel A. Hela cells were challenged with serial twofold dilutions of 50 μM Luteolin (in columns 1-6) and 100 μM Galangin (columns 7-10). Hela control untreated cells in columns 11-12.
A total of 6 cell lines, outlined in Table 3, were used for this study. The cell lines were obtained from Research Centres of cell biology in Italy, United Kingdom and Germany. This research raised no ethical concern being based on entirely in vitro experiments using no patients' derived information or material. In compliance with National and International ethical rules, no informed consent is needed.
HeLa cells are the oldest continuous cell lines and were originally derived from a HPV18 positive metastatic cervical carcinoma (Scherer W F et al 1953). Siha cells are an epithelioid like cell line derived from a HPV16-positive invasive cervical squamous carcinoma (Friedel F et al 1970). Ca-Ski cells are a line harboring multiple copy of transcriptionally active HPV16 genomes (Baker C C et al 1984). Both Hela and Siha were a kind gift of prof MS Campo, The Beatson Institute for Cancer Research, Glasgow, Scotland. These two cell lines because of their versatility and ease of use were used for most of experiments reported. Ca-Ski cells were obtained through the courtesy of prof. Matthias Durst, at the Deutsch Krebsforschungzentrum—Heidelberg, FRG. These cells used together with Siha provide a model for the genetic instability and variability of cervical cancers. HK-168 is an immortalized, non-tumorigenic, continuous cell line derived from human skin keratinocytes in vitro transformed with whole HPV16 genome (De Marco F et al 2007). This cell line is reputed to recapitulate le biological features of transformed dysplastic cells and was used in preliminary experiments to set the experimental dosages and conditions. The ME-180 cells are a cell line harboring a few, transcriptionally active, copies of HPV68 and provide an in vitro model for dysplastic/neoplastic lesions induced by HPV with Intermediate oncogenic Risk (Yee C C et al 1985). The HaCaT cells, derived from a solar skin lesion by Petra Boukamp et al (1988) are here used as an in vitro equivalent of Ultra-Violet induced pre-neoplastic epithelial cells to rule out possible direct toxic effects of polyphenols. Both HaCaT and ME-180, were kindly donated by Prof. Matthias Durst. Hela, Siha, Ca-Ski, ME-180 and HaCaT were all grown in high glucose DMEM supplemented with 10% fetal calf serum (FCS). The HK-168 cells, which retained the ability to terminally differentiate under high Ca^2+ and FCS concentrations, were grown in K-SFM, a chemically defined medium supplemented with human EGF and bovine pituitary extract (ThermoFisher Scientific, Life Technologies, Monza—MI). Each cell line was sub-cultured twice a week at the appropriate split ratio according to the specific proliferative index. In no case antibiotics or antimycotics were added to the culture media. For the present study, all cell lines were retrieved from an in-house cell archive facility.
The anti-clonogenic activity was evaluated both by the current standard qualitative plating efficiency assay and by quantitative live cell imaging analysis ([…] S3 Live Cell Analysis Imaging System—Sartorius Welwyn Garden City, Hertfordshire, UK).

[1] = combined with Galangin, Chrysin or Apigenin
[2] = 50 μM combined with Galangin 25 μM, FIG. 11

Row | Structure (SMILES) | clonal inhibition in combination (HPV transformed cells; [1]) | anticlonogenic / anti-clonal effect (HPV transformed cells; isolated compound) | clonal inhibition in combination with Apigenin (HeLa cells) | clonal inhibition in combination with Chrysin (HeLa cells) | clonal inhibition in combination with Galangin (HeLa cells; [2]) | end point clonal assay, clonal inhibition alone (HeLa cells) | Anti-clonal effect (HeLa cells) | synergy with Galangine, Apigenin and Chrysin (HeLa cells; in association) | other results
1 | O=C(O)c1ccccc1 [Benzoic acid] | a certain grade of clonal inhibition | devoid of. any direct anticlonogenic activity | almost complete clonal inhibition | almost complete clonal inhibition | almost complete clonal inhibition | neither of them induced any effect | devoid of any significant anticlonogenic effect | synergize | –
2 | O=C(/C=C/c1ccc(O)c(O)c1)O[C@@H]1C[C@](O)(C(=O)O)C[C@@H](O)[C@H]1O [Chlorogenic acid] | a certain grade of clonal inhibition | devoid of. any direct anticlonogenic activity | almost complete clonal inhibition | almost complete clonal inhibition | almost complete clonal inhibition | neither of them induced any effect | devoid of any significant anticlonogenic effect | synergize | –
3 | O=c1cc(-c2ccccc2)oc2cc(O)cc(O)c12 [Chrysin] | – | fair anti-clonal effect, although milder | – | – | – | – | almost complete suppression of clonal activity | – | IC50 (HPV transformed cells; isolated compound): 25 µM; IRR (inhibitory relative rate) (HPV transformed cells; isolated compound, reverse ratio of CID50 to the reference CID50 of Quercetin (=1)): 2
4 | O=C1c2c(O)cc(O)cc2O[C@H](c2ccccc2)[C@H]1O [Pinobanksin] | – | – | – | – | – | – | No effect | – | –
5 | O=C1C[C@@H](c2ccccc2)Oc2cc(O)cc(O)c21 [Pinocembrin] | – | – | – | – | – | – | devoid of any significant anticlonogenic effect | – | –
6 | O=C(O)c1ccc(O)c(O)c1 [Protocatechuic acid] | a certain grade of clonal inhibition | devoid of. any direct anticlonogenic activity | almost complete clonal inhibition | almost complete clonal inhibition | almost complete clonal inhibition | neither of them induced any effect | devoid of any significant anticlonogenic effect | synergize | –
7 | O=c1c(O)c(-c2ccc(O)c(O)c2)oc2cc(O)cc(O)c12 [Quercetin] | – | fair anti-clonal effect, although milder | – | – | – | – | almost complete suppression of clonal activity | – | IC50 (HPV transformed cells; isolated compound): 50 µM
8 | C[C@@H]1O[C@@H](OC[C@H]2O[C@@H](Oc3c(-c4ccc(O)c(O)c4)oc4cc(O)cc(O)c4c3=O)[C@H](O)[C@@H](O)[C@@H]2O)[C@H](O)[C@H](O)[C@H]1O [Rutin] | – | – | – | – | – | – | No effect | – | –
9 | COc1cc(C(=O)O)ccc1O [Vanillic acid] | – | devoid of any direct activity | almost complete clonal inhibition | – | – | neither of them induced any effect | devoid of any significant anticlonogenic effect | – | clonal inhibition in combination (HPV transformed cells; combined with Galangin or Quercetin): a certain grade of clonal inhibition; anticlonogenic / anti-clonal effect (HPV transformed cells; isolated compound, listed as Vanillic): devoid of. any direct anticlonogenic activity; clonal inhibition in combination with Galangin (HeLa cells; 50 μM combined with Galangin 12.5 μM, FIG. 9-10): almost complete clonal inhibition; synergistic effect with Galangine and Apigenin (HeLa cells; in association, FIG. 9): synergistic effect
